Source: patent US12435320B2, “CRISPR having or associated with destabilization domains” (The Broad Institute, Inc., priority 2014, dated 2025)

Legend:
[1] = tested on: Factor VII; conditions: LNP siRNA systems containing these lipids; hepatocytes in vivo; cited from earlier work
[2] = tested on: Mutants of human FKBP12; conditions: cited from earlier work
[3] = tested on: EGFP gene; experiment: Decrease in EGFP positive cells in an EGFP-producing cell line treated with SpCas9-DD fusion protein and guide RNA; format: cell-based; conditions: DHFR-SpCas9-DHFR (DSPD); increasing dosages of TMP
[4] = tested on: EGFP gene; experiment: U2OS.EGFP knockdown assay, loss of EGFP fluorescence, high-content automated microscope imaging; format: cell-based; conditions: ligand added to the DD-SpCas9-DD fusion protein and EGFP guide RNA
Description: The low throughput, flow cytometry-readout was replaced with a high-throughput readout using a high-content, automated microscope imaging. This assay can be run in a 96-well format and the data can be analyzed by a high-throughput image analysis platform, called ImageExpress.

[5] = tested on: mammalian DHFR (DHFRts); conditions: addition to cells expressing DHFRts; cited from earlier work
[6] = tested on: human embryonic stem cells (hESCs); experiment: Mutagenic NHEJ by Cas9-D10A nickase in human embryonic stem cells; format: cell-based
Description: The CRISPR enzyme is Cas9, and may be Cas9 from S. pyogenes or S. pneumoniae. In some embodiments, the CRISPR enzyme directs cleavage of one or both strands at the location of a target sequence, such as within the target sequence and/or within the complement of the target sequence. In some embodiments, the CRISPR enzyme directs cleavage of one or both strands within about 1, 2, 3, 4, 5, 6, 7, 8, 9, 10, 15, 20, 25, 50, 100, 200, 500, or more base pairs from the first or last nucleotide of a target sequence. In some embodiments, a vector encodes a CRISPR enzyme that is mutated to with respect to a corresponding wild-type enzyme such that the mutated CRISPR enzyme lacks the ability to cleave one or both strands of a target polynucleotide containing a target sequence. […] In some embodiments, a Cas9 nickase may be used in combination with guide sequenc(es), e.g., two guide sequences, which target respectively sense and antisense strands of the DNA target. This combination allows both strands to be nicked and used to induce NHEJ.

[7] = Double nicking indel formation with sgRNA pairs; format: cell-based; conditions: substitution of Cas9n with Cas9H840A with a given sgRNA pair; eukaryotic system
Description: Aspects of the invention relate to the expression of the gene product being decreased or a template polynucleotide being further introduced into the DNA molecule encoding the gene product or an intervening sequence being excised precisely by allowing the two 5′ overhangs to reanneal and ligate or the activity or function of the gene product being altered or the expression of the gene product being increased. In an embodiment of the invention, the gene product is a protein. Only sgRNA pairs creating 5′ overhangs with less than 8 bp overlap between the guide sequences (offset greater than −8 bp) were able to mediate detectable indel formation. […] Nonetheless, a pair of sgRNAs that will generate a 5′ overhang with Cas9n should in principle generate the corresponding 3′ overhang instead, and double nicking. […] Accordingly, in some embodiments, a recombination template is also provided. A recombination template may be a component of another vector as described herein, contained in a separate vector, or provided as a separate polynucleotide. In some embodiments, a recombination template is designed to serve as a template in homologous recombination, such as within or near a target sequence nicked or cleaved by a CRISPR enzyme as a part of a CRISPR complex. […]

[8] = tested on: dystrophin; conditions: across 48 weeks; cited from earlier work

1,2-dilinoleyloxy-keto-N,N-dimethyl-3-aminopropane [DLinKDMA]
gene silencing potency series [1]: DLinKC2-DMA>DLinKDMA>DLinDMA>>DLinDAP

CCCCC/C=C\C/C=C\CCCCCCCC(=O)OCC(CN(C)C)OC(=O)CCCCCCC/C=C\C/C=C\CCCCC (stereo not shown) [DLinDAP, 1,2-dilineoyl-3-dimethylammonium-propane]
gene silencing potency series [1]: DLinKC2-DMA>DLinKDMA>DLinDMA>>DLinDAP

CCCCC/C=C\C/C=C\CCCCCCCCOCC(CN(C)C)OCCCCCCCC/C=C\C/C=C\CCCCC (stereo not shown) [DLinDMA, 1,2-dilinoleyloxy-3-N,N-dimethylaminopropane]
gene silencing potency series [1]: DLinKC2-DMA>DLinKDMA>DLinDMA>>DLinDAP

CCCCC/C=C\C/C=C\CCCCCCCCC1(CCCCCCCC/C=C\C/C=C\CCCCC)OCC(CCN(C)C)O1 (stereo not shown) [DLinKC2-DMA, 1,2-dilinoleyl-4-(2-dimethylaminoethyl)-[1,3]-dioxolane]
gene silencing potency series [1]: DLinKC2-DMA>DLinKDMA>DLinDMA>>DLinDAP

CC[C@H](C(=O)N1CCCC[C@H]1C(=O)O[C@H](CCc1ccc(OC)c(OC)c1)c1cccc(OCCN2CCOCC2)c1)c1cc(OC)c(OC)c(OC)c1 [Shield-1]
binding and stabilization of the DD [2]: bind to and stabilize the DD in a dose-dependent manner

COc1cc(Cc2cnc(N)nc2N)cc(OC)c1OC [TMP, trimethoprim]
effect of ligand addition on the effect of the SpCas9-DD fusion protein [3]: increased the effect of the SpCas9-DD fusion protein in a dose-dependent manner | Effect of added DD ligand on the fusion protein's reduction of EGFP fluorescence [4]: increased the effect of the DSPD fusion protein in a dose-dependent manner

CN(Cc1cnc2nc(N)nc(N)c2n1)c1ccc(C(=O)N[C@@H](CCC(=O)O)C(=O)O)cc1 [methotrexate]
degradation of DHFRts protein [5]: inhibited degradation of the protein partially

Cas9-D10A: Cas9 nickase with the D10A mutation
efficiency relative to nuclease (regular Cas9 without D10 mutation) ([6]; double nickase, two sgRNAs targeted to different strands at the same location, hESCs): about 50% | induction of NHEJ and indels ([6]; single nickase, with a single sgRNA): unable to induce NHEJ and create indels

Cas9H840A: Cas9 with the H840A mutation
indel formation [7]: no indel formation is observed

eteplirsen
Dystrophin positive fibers compared to baseline, average [8]: 47% | Functional benefit [8]: significant functional benefit
